Laboratory results reported in patent US20240374563A1, “ANTICHOLINERGIC COMPOUNDS FOR USE IN TREATING NEUROMUSCULAR DISORDERS” (UNIVERSITY OF MONTRÉAL, priority 2022, published 2024).

How the values were obtained:
[1] = tested on: PSC purinergic receptors; experiment: Calcium imaging of PSCs: Ca2+ responses to local ATP application; format: in vivo, SOD1^G37R mice
[2] = tested on: SOD1^G37R mice; experiment: NMJ innervation status and NMJ repair signs by immunohistochemistry; format: in vivo, mouse
Method: We characterized EDL innervation status, a vulnerable fast-twitch muscle in ALS [3, 25-27], by classifying NMJs into fully innervated, partially innervated and denervated NMJs (FIG. 2A).
Neuromuscular innervation: Immunostaining was performed on EDL and SOL muscle previously described. Briefly, NMJs were labeled to visualise the axon terminal, Schwann cells and the post-synaptic receptors. The presynaptic element was labeled using an anti-synaptic vesicular protein 2 (SV2, 1:2000, Developmental Studies Hybridoma Bank) and an anti-neurofilament M, (NF-M, 1:1000, Rockland Immunochemicals Inc). PSCs and Schwann cells were labeled with anti-S100β antibody (1:4, Z0311, Dako) and post-synaptic receptors with Alexa594-conjugated-α-BTX (1.33 μg/ml, Molecular Probes, Fischer Scientific, Canada).
Observations and image acquisition were obtained using a Zeiss LSM 880 confocal microscope, with a 63× oil immersion objective (N.A. 1.4) or an Olympus FV 1000, with either a 63× oil immersion objective or a 20× water immersion objective (respectively N.A. 0.95 and 0.90). No image manipulations were performed after acquisition, except for brightness and contrast adjustments for figure presentation.

[3] = tested on: SOD1^G37R mice; experiment: EDL muscle fatigue protocol and 30 min recovery; format: in vivo, mouse
Method: In addition to the force generated, a muscle is also characterised by its resistance to fatigue. For instance, fast-twitch muscles composed of a majority of fast fatigable motor units like the EDL, is their great fatigability. In ALS, alteration at the type of innervation (from fast to slow twitch) and in the properties of muscles themselves alter the fatigue properties, rendering them more resistant. […] We used a fatigue stimulation protocol, followed by a 30 min recovery period (FIG. 6A). […] However, we found no difference in the rate of fatigue of muscle contractions generated by motor nerve stimulation (FIG. 6C; Dari N=8, Placebo N=8; p>0.05, Repeated two-way ANOVA). […] There was no difference in the rate of recovery following the fatigue protocol between the darifenacin-treated mice and the placebo-treated ones (FIG. 6B-C; Dari N=8, Placebo N=8; p>0.05, Repeated two-way ANOVA).
Finally, we investigated the fatigue properties of the EDL muscle following darifenacin pre-onset treatment. As mentioned earlier, fast-twitch muscles like the EDL are very strong but are normally highly fatigable. However, in ALS, a gradual resistance to fatigue of fast-twitch muscles have been unraveled, following progression of disease pathogenesis. We used a fatigue stimulation protocol (180 trains at 120 Hz-300 ms), followed by a 30 min recovery period (see FIG. 6A) to investigate treatment impact on EDL fatigue properties. […] The strong resistance of the muscle to fatigue probably reflected the high rate of denervation of the EDL muscle at the symptomatic stage in both darifenacin-and placebo-treated mice.
Muscle fatigue: The fatigue protocol is illustrated in FIG. 6A. The fatigue protocol was adapted to each muscle owing to the differences in their intrinsic properties. For the EDL, fatigue was tested using a bout of 180 nerve stimulations for a duration of 300 ms, elicited at a frequency of 120 Hz. The rest period between each stimulation was 700 ms, for a total protocol duration of 3 min. Muscular stimulations were super-imposed to nerve stimulations every 10 stimulations (18 simultaneous nerve-muscle stimulations), to evaluate muscular reserve. The fatigue protocol for the SOL consisted of a bout of 300 nerve stimulations for 500 ms at 50 Hz, with a rest period of 600 ms between stimulations, for a total duration of 5 min 30. Muscular stimulations were super-imposed to nerve stimulations every 10 stimulations (30 simultaneous nerve-muscle stimulations).
Each fatigue protocol was followed by a 30 min recovery period during which muscular and neuromuscular contractile force were measured at the following latencies (after the end of the fatigue protocol): 5 s, 10 s, 15 s, 30 s, 45 sec, 1 min, 1.5 min, 2 min, 2.5 min, 5 min, 10 min, 20 min and 30 min.

[4] = tested on: SOD1^G37R mice; experiment: EDL muscle weight; format: in vivo, mouse
[5] = tested on: SOD1^G37R mice; experiment: Grip strength; format: in vivo, mouse; conditions: from P490 until the end of the trial; treatment from disease onset; N=19
From the text: Mice of the darifenacin and placebo groups began the trial with a similar grip strength force.
The pre-clinial trial design was made according to guidelines for preclinical animal research in ALS/MND [35]. Male mice from the SOD1^G37R background and their WT littermates were included in the preclinical study. Mice were randomly assigned to the experimental or the placebo group. Treatment, behavior monitoring, experiments and results analysis were done blindly. Standard ALS behavioral measurements were performed biweekly to measure disease progression in the various study groups. This includes rotarod test. grip strength measurements, weight measurements and tail suspension test to assess hindlimb extension reflex.

[6] = tested on: SOD1^G37R mice; experiment: Gait analysis (footprint test); format: in vivo, mouse; conditions: P520; treatment from disease onset; N=8
Method: Finally, we aimed to better characterize the walking pattern of the mice following treatment. We measured the gait by performing a footprint analysis using inked paws.
Gait was assessed using the footprint test. Paws were inked with a nontoxic paint (fore-paws in blue and hind-paws in red), mice were placed on a restricted pathway on a white paper sheet (30 cm long, 6 cm wide) and free to walk along the walkway. Five footsteps from each run were measured for the following parameters (cm): (1) stride length ([…]) and (2) Step width (distance between left and right paws). The mean value of each set of outcomes was calculated for statistical analysis.

[7] = EDL, pre-onset treatment P400 until P480
[8] = EDL, treatment from disease onset (P450), 10 mg/kg orally, to P520
[9] = EDL, treatment from disease onset, 10 mg/kg orally
[10] = pre-onset treatment P400 until P520

## NC(=O)C(c1ccccc1)(c1ccccc1)[C@@H]1CCN(CCc2ccc3c(c2)CCO3)C1 [darifenacin]
[1]; SOD1G37R mice, 10 mg/kg orally for 5 days
  PSC Ca2+ response to ATP, Darifenacin vs DMSO vs non-treated wild type: no difference
[1]; SOD1 mice, 10 or 15 mg/kg for 30 days
  effect on purinergic signaling of PSCs (Ca2+ responses to local ATP): no effect
[2]; [7]
  animals in which glial process extensions were seen: 5 out of 6
  percentage of denervated NMJs: 15.7±5.9%
  percentage of partially innervated NMJs: 33.9±5.1%
[2]; EDL, pre-onset treatment P400 until P480, N=6, n=145
  percentage of fully innervated NMJs: 50.4±9.2%
[2]; EDL, treatment from disease onset (P450), 10 mg/kg orally 5 days a week, to P520, N=7, n=293
  percentage of denervated NMJs: 5.6±1.8%
[2]; [8]
  percentage of fully innervated NMJs: 70.1±4.2%
  percentage of partially innervated NMJs: 24.2±4.0%
[2]; [9]
  percentage of NMJs presenting nerve sprouting: 21.5±4.3%
  percentage of NMJs with glial processes alone: 2.2±1.8%
  percentage of NMJs with polyinnervation: 6.4±2.8
[2]; SOL and EDL, pre-onset treatment P400 until P480
  NMJ repair signs (nerve sprouting, polyinnervation, glial processes) vs placebo: no evidence of significant difference
[2]; SOL, pre-onset treatment P400 until P480
  percentage of partially innervated NMJs: 34.9±8.6%
[2]; SOL, pre-onset treatment P400 until P480, N=4, n=118
  percentage of fully innervated NMJs: 60.5±8.2%
[3]; [10]
  rate of fatigue generated by muscle stimulation vs placebo: no difference
  rate of recovery following the fatigue protocol vs placebo: comparable
[3]; treatment from disease onset
  rate of fatigue of contractions generated by motor nerve stimulation vs placebo: no difference
  rate of recovery following the fatigue protocol vs placebo: no difference
[3]; treatment from disease onset, p<0.01 vs placebo
  EDL fatigue on direct muscle stimulation: more typical for this type of fast twitch muscle
[4]; pre-onset treatment P400 until P520, N=4, n=7
  EDL muscle weight: 9.1 ± 0.55 mg
[4]; treatment from disease onset, N=8, n=16
  EDL muscle weight: 11.79 ± 0.34 mg
[5]
  grip strength vs placebo: performed better
[6]
  step width: 2.62±0.16 cm
  stride length: 4.13±0.36 cm
